Assay results reported in ChEMBL document CHEMBL1201862, “PubChem BioAssay data set” (2004).
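Values below derive from 48-hour exposures of cells grown in 96-well plates, with endpoints linearly interpolated between the two concentrations bracketing the appropriate inhibition level. Abbreviation: GI50, concentration required for 50% inhibition of growth.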 Calls of active or inactive are those of the source. No stated cut-off is given here; in the data, active = GI50 up to about 1.1 µM and inactive = higher.

What was measured:
Experiment in all cases: NCI tumour cell line growth inhibition, 48 h
[1] = system: 786-0
[2] = system: A498
[3] = system: A549
[4] = system: ACHN
[5] = system: CAKI-1
[6] = system: CCRF-CEM
[7] = system: COLO 205
[8] = system: DLD-1
[9] = system: DMS-114
[10] = system: DMS-273
[11] = system: HCC 2998
[12] = system: HCT-116
[13] = system: HCT-15
[14] = system: HL-60
[15] = system: HOP-18
[16] = system: HOP-62
[17] = system: HOP-92
[18] = system: HT-29
[19] = system: IGROV-1
[20] = system: K562
[21] = system: KM-20L2
[22] = system: KM12
[23] = system: LOX IMVI
[24] = system: LXFL 529
[25] = system: M14
[26] = system: M19-MEL
[27] = system: MOLT-4
[28] = system: Malme-3M
[29] = system: NCI-H226
[30] = system: NCI-H23
[31] = system: NCI-H460
[32] = system: NCI-H522
[33] = system: OVCAR-3
[34] = system: OVCAR-4
[35] = system: OVCAR-8
[36] = system: RPMI-8226
[37] = system: RXF 631
[38] = system: SF-268
[39] = system: SF-295
[40] = system: SF-539
[41] = system: SK-MEL-28
[42] = system: SK-MEL-2
[43] = system: SK-MEL-5
[44] = system: SK-OV-3
[45] = system: SN12C
[46] = system: SNB-19
[47] = system: SNB-75
[48] = system: SR
[49] = system: SW-620
[50] = system: TK-10
[51] = system: U-251
[52] = system: UACC-257
[53] = system: UACC-62
[54] = system: UO-31
[55] = system: EKVX
[56] = system: OVCAR-5
[57] = system: RXF 393
[58] = system: XF498

Q: `CC12CC/C(=N/NC(N)=O)C3C1CCCC32` was tested. Which GI50 [1] did it give?
A: > 100 µM (inactive)

Q: And the GI50 [2]?
A: > 100 µM (inactive)

Q: And the GI50 [3]?
A: > 100 µM (inactive)

Q: What about the GI50 [4] of the same molecule?
A: > 100 µM (inactive)

Q: And the GI50 [5]?
A: > 100 µM (inactive)

Q: What about the GI50 [6] of the same molecule?
A: > 100 µM (inactive)

Q: What about the GI50 [7] of the same molecule?
A: > 100 µM (inactive)

Q: What about the GI50 [8] of the same molecule?
A: > 100 µM (inactive)

Q: And the GI50 [9]?
A: > 100 µM (inactive)

Q: What about the GI50 [10] of the same molecule?
A: > 100 µM (inactive)

Q: And the GI50 [11]?
A: > 100 µM (inactive)

Q: And the GI50 [12]?
A: > 100 µM (inactive)

Q: What about the GI50 [13] of the same molecule?
A: > 100 µM

Q: And the GI50 [14]?
A: > 100 µM (inactive)

Q: What about the GI50 [15] of the same molecule?
A: > 100 µM (inactive)

Q: And the GI50 [16]?
A: > 100 µM (inactive)

Q: And the GI50 [17]?
A: > 100 µM (inactive)

Q: What about the GI50 [18] of the same molecule?
A: > 100 µM (inactive)

Q: And the GI50 [19]?
A: > 100 µM (inactive)

Q: And the GI50 [20]?
A: > 100 µM (inactive)

Q: And the GI50 [21]?
A: > 100 µM (inactive)

Q: What about the GI50 [22] of the same molecule?
A: > 100 µM (inactive)

Q: And the GI50 [23]?
A: > 100 µM (inactive)

Q: What about the GI50 [24] of the same molecule?
A: > 100 µM (inactive)

Q: And the GI50 [25]?
A: > 100 µM (inactive)

Q: What about the GI50 [26] of the same molecule?
A: > 100 µM (inactive)

Q: And the GI50 [27]?
A: > 100 µM (inactive)

Q: And the GI50 [28]?
A: > 100 µM (inactive)

Q: And the GI50 [29]?
A: > 100 µM (inactive)

Q: And the GI50 [30]?
A: > 100 µM (inactive)

Q: What about the GI50 [31] of the same molecule?
A: > 100 µM (inactive)

Q: What about the GI50 [32] of the same molecule?
A: > 100 µM (inactive)

Q: And the GI50 [33]?
A: > 100 µM (inactive)

Q: And the GI50 [34]?
A: > 100 µM (inactive)

Q: And the GI50 [35]?
A: > 100 µM (inactive)

Q: And the GI50 [36]?
A: > 100 µM (inactive)

Q: And the GI50 [37]?
A: > 100 µM (inactive)

Q: And the GI50 [38]?
A: > 100 µM (inactive)

Q: What about the GI50 [39] of the same molecule?
A: > 100 µM (inactive)

Q: And the GI50 [40]?
A: > 100 µM (inactive)

Q: What about the GI50 [41] of the same molecule?
A: > 100 µM (inactive)

Q: And the GI50 [42]?
A: > 100 µM (inactive)

Q: And the GI50 [43]?
A: > 100 µM (inactive)

Q: What about the GI50 [44] of the same molecule?
A: > 100 µM (inactive)

Q: What about the GI50 [45] of the same molecule?
A: > 100 µM (inactive)

Q: What about the GI50 [46] of the same molecule?
A: > 100 µM (inactive)

Q: What about the GI50 [47] of the same molecule?
A: > 100 µM (inactive)

Q: What about the GI50 [48] of the same molecule?
A: > 100 µM (inactive)

Q: What about the GI50 [49] of the same molecule?
A: > 100 µM (inactive)

Q: And the GI50 [50]?
A: > 100 µM (inactive)

Q: And the GI50 [51]?
A: > 100 µM (inactive)

Q: And the GI50 [52]?
A: > 100 µM (inactive)

Q: And the GI50 [53]?
A: > 100 µM (inactive)

Q: And the GI50 [54]?
A: > 100 µM (inactive)

Q: With `O=C1C(c2ccccc2)=[N+]([O-])c2ccc(Cl)cc21` as the molecule, how does the GI50 [1] read?
A: 82.4 µM (inactive)

Q: What about the GI50 [2] of the same molecule?
A: > 100 µM (inactive)

Q: And the GI50 [3]?
A: 32.1 µM (inactive)

Q: And the GI50 [4]?
A: 23.2 µM (inactive)

Q: And the GI50 [6]?
A: 25.9 µM (inactive)

Q: And the GI50 [7]?
A: 14.1 µM (inactive)

Q: And the GI50 [8]?
A: 19 µM (inactive)

Q: And the GI50 [9]?
A: 12.8 µM (inactive)

Q: And the GI50 [55]?
A: 16.9 µM (inactive)

Q: And the GI50 [12]?
A: 15.8 µM (inactive)

Q: And the GI50 [13]?
A: 20 µM

Q: What about the GI50 [14] of the same molecule?
A: 10.6 µM (inactive)

Q: What about the GI50 [15] of the same molecule?
A: 29.6 µM (inactive)

Q: And the GI50 [16]?
A: 63.4 µM (inactive)

Q: What about the GI50 [17] of the same molecule?
A: 0.0256 µM (active)

Q: What about the GI50 [18] of the same molecule?
A: 22 µM (inactive)

Q: What about the GI50 [19] of the same molecule?
A: 20.6 µM (inactive)

Q: And the GI50 [20]?
A: 32.5 µM (inactive)

Q: And the GI50 [21]?
A: 35.1 µM (inactive)

Q: What about the GI50 [22] of the same molecule?
A: 30.1 µM (inactive)

Q: What about the GI50 [23] of the same molecule?
A: 18.4 µM (inactive)

Q: What about the GI50 [24] of the same molecule?
A: 13.6 µM (inactive)

Q: And the GI50 [25]?
A: 27.8 µM (inactive)

Q: And the GI50 [26]?
A: 20.1 µM (inactive)

Q: What about the GI50 [27] of the same molecule?
A: 23.6 µM (inactive)

Q: What about the GI50 [28] of the same molecule?
A: 26.2 µM (inactive)

Q: What about the GI50 [29] of the same molecule?
A: 14.7 µM (inactive)

Q: And the GI50 [30]?
A: 31.6 µM (inactive)

Q: And the GI50 [31]?
A: 42.4 µM (inactive)

Q: What about the GI50 [32] of the same molecule?
A: 15.3 µM (inactive)

Q: And the GI50 [33]?
A: 23.3 µM (inactive)

Q: What about the GI50 [56] of the same molecule?
A: 35.2 µM (inactive)

Q: And the GI50 [35]?
A: 15 µM (inactive)

Q: And the GI50 [36]?
A: 21.2 µM (inactive)

Q: And the GI50 [57]?
A: 13.2 µM (inactive)

Q: What about the GI50 [37] of the same molecule?
A: 32.7 µM (inactive)

Q: What about the GI50 [38] of the same molecule?
A: 22.4 µM (inactive)

Q: And the GI50 [39]?
A: 34.1 µM (inactive)

Q: What about the GI50 [40] of the same molecule?
A: 20.2 µM (inactive)

Q: And the GI50 [41]?
A: 20 µM (inactive)

Q: What about the GI50 [42] of the same molecule?
A: > 100 µM (inactive)

Q: What about the GI50 [43] of the same molecule?
A: 17.3 µM (inactive)

Q: And the GI50 [44]?
A: > 100 µM (inactive)

Q: And the GI50 [45]?
A: 24.2 µM (inactive)

Q: What about the GI50 [46] of the same molecule?
A: 34.5 µM (inactive)

Q: And the GI50 [47]?
A: 46.8 µM (inactive)

Q: What about the GI50 [48] of the same molecule?
A: 34.7 µM (inactive)

Q: And the GI50 [49]?
A: 49.2 µM (inactive)

Q: And the GI50 [50]?
A: 29.2 µM (inactive)

Q: What about the GI50 [51] of the same molecule?
A: 25.9 µM (inactive)

Q: What about the GI50 [52] of the same molecule?
A: 19.3 µM (inactive)

Q: What about the GI50 [53] of the same molecule?
A: 17.5 µM (inactive)

Q: What about the GI50 [54] of the same molecule?
A: 43.3 µM (inactive)

Q: And the GI50 [58]?
A: 19 µM (inactive)
